Tests used:
Format in all cases: cell-based
TK-10 = experiment: NCI 60 human tumor cell line screen (SRB): TK-10; conditions: TK-10, Renal, 48 hours, read-out: GI50 values (μM conc.)
Experimental: (§1) The in vitro anticancer activity studies for these chalcone analogues were carried out at the National Cancer Institute, USA.
(§2) The chalcone compounds have been tested at NCI, USA, against sixty human tumor cell lines derived from nine cancer types (leukemia, non-small cell lung cancer, colon cancer, CNS cancer, melanoma cancer, ovarian cancer, renal cancer, prostate cancer and breast cancer). For these compounds results are expressed as growth inhibition (GI50) values as per NCI protocol.
(§3) We describe here the development and implementation of a pilot-scale, in vitro, anticancer drug screen utilizing a panel of 60 human tumor cell lines organized into subpanels representing leukemia, melanoma, and cancers of the lung, colon, kidney, ovary, and central nervous system. The ultimate goal of this disease-oriented screen is to facilitate the discovery of new compounds with potential cell line-specific and/or subpanel-specific antitumor activity. In the current screening protocol, each cell line is inoculated onto microtiter plates, then preincubated for 28 hours. Subsequently, test agents are added in five 10-fold dilutions and the culture is incubated for an additional 48 hours. For each test agent, a dose-response profile is generated. End-point determinations of the cell viability or cell growth are performed by in situ fixation of cells, followed by staining with a protein-binding dye, sulforhodamine B (SRB). The SRB binds to the basic amino acids of cellular macromolecules; the solubilized stain is measured spectrophotometrically to determine relative cell growth or viability in treated and untreated cells.

LOX IMVI = experiment: NCI 60 human tumor cell line screen (SRB): LOX IMVI; conditions: Melanoma, 48 hours, read-out: GI50 values (μM conc.)
Experimental: as §1, §2, §3

OVCAR-5 = experiment: NCI 60 human tumor cell line screen (SRB): OVCAR-5; conditions: OVCAR-5, Ovarian, 48 hours, read-out: GI50 values (μM conc.)
Experimental: as §1, §2, §3

SK-MEL-5 = experiment: NCI 60 human tumor cell line screen (SRB): SK-MEL-5; conditions: SK-MEL-5, Melanoma, 48 hours, read-out: GI50 values (μM conc.)
Experimental: as §1, §2, §3

HCT-15 = experiment: NCI 60 human tumor cell line screen (SRB): HCT-15; conditions: HCT-15, Colon, 48 hours, read-out: GI50 values (μM conc.)
Experimental: as §1, §2, §3

HS 578T = experiment: NCI 60 human tumor cell line screen (SRB): HS 578T; conditions: Breast, 48 hours, read-out: GI50 values (μM conc.)
Experimental: as §1, §2, §3

DU-145 = experiment: NCI 60 human tumor cell line screen (SRB): DU-145; conditions: DU-145, Prostate, 48 hours, read-out: GI50 values (μM conc.)
Experimental: as §1, §2, §3

SNB-75 = experiment: NCI 60 human tumor cell line screen (SRB): SNB-75; conditions: SNB-75, CNS, 48 hours, read-out: GI50 values (μM conc.)
Experimental: as §1, §2, §3

U251 = experiment: NCI 60 human tumor cell line screen (SRB): U251; conditions: U-251, U251, CNS, 48 hours, read-out: GI50 values (μM conc.)
Experimental: as §1, §2, §3

BT-549 = experiment: NCI 60 human tumor cell line screen (SRB): BT-549; conditions: BT-549, Breast, 48 hours, read-out: GI50 values (μM conc.)
Experimental: as §1, §2, §3

UO-31 = experiment: NCI 60 human tumor cell line screen (SRB): UO-31; conditions: UO-31, Renal, 48 hours, read-out: GI50 values (μM conc.)
Experimental: as §1, §2, §3

EKVX = experiment: NCI 60 human tumor cell line screen (SRB): EKVX; conditions: Non-small cell lung, 48 hours, read-out: GI50 values (μM conc.)
Experimental: as §1, §2, §3

OVCAR-8 = experiment: NCI 60 human tumor cell line screen (SRB): OVCAR-8; conditions: OVCAR-8, Ovarian, 48 hours, read-out: GI50 values (μM conc.)
Experimental: as §1, §2, §3

NCI/ADR-RES = experiment: NCI 60 human tumor cell line screen (SRB): NCI/ADR-RES; conditions: Ovarian, 48 hours, read-out: GI50 values (μM conc.)
Experimental: as §1, §2, §3

M14 = experiment: NCI 60 human tumor cell line screen (SRB): M14; conditions: M14, Melanoma, 48 hours, read-out: GI50 values (μM conc.)
Experimental: as §1, §2, §3

SF-539 = experiment: NCI 60 human tumor cell line screen (SRB): SF-539; conditions: SF-539, CNS, 48 hours, read-out: GI50 values (μM conc.)
Experimental: as §1, §2, §3

HOP-62 = experiment: NCI 60 human tumor cell line screen (SRB): HOP-62; conditions: HOP-62, Non-small cell lung, 48 hours, read-out: GI50 values (μM conc.)
Experimental: as §1, §2, §3

SN12C = experiment: NCI 60 human tumor cell line screen (SRB): SN12C; conditions: Renal, 48 hours, read-out: GI50 values (μM conc.)
Experimental: as §1, §2, §3

A498 = experiment: NCI 60 human tumor cell line screen (SRB): A498; conditions: A498, Renal, 48 hours, read-out: GI50 values (μM conc.)
Experimental: as §1, §2, §3

COLO-205 = experiment: NCI 60 human tumor cell line screen (SRB): COLO-205; conditions: COLO-205, Colon, 48 hours, read-out: GI50 values (μM conc.)
Experimental: as §1, §2, §3

SK-MEL-2 = experiment: NCI 60 human tumor cell line screen (SRB): SK-MEL-2; conditions: SK-MEL-2, Melanoma, 48 hours, read-out: GI50 values (μM conc.)
Experimental: as §1, §2, §3

A549/ATCC = experiment: NCI 60 human tumor cell line screen (SRB): A549/ATCC; conditions: Non-small cell lung, 48 hours, read-out: GI50 values (μM conc.)
Experimental: as §1, §2, §3

CAKI-1 = experiment: NCI 60 human tumor cell line screen (SRB): CAKI-1; conditions: CAKI-1, Renal, 48 hours, read-out: GI50 values (μM conc.)
Experimental: as §1, §2, §3

786-0 = experiment: NCI 60 human tumor cell line screen (SRB): 786-0; conditions: 786-0, Renal, 48 hours, read-out: GI50 values (μM conc.)
Experimental: as §1, §2, §3

SK-MEL-28 = experiment: NCI 60 human tumor cell line screen (SRB): SK-MEL-28; conditions: SK-MEL-28, Melanoma, 48 hours, read-out: GI50 values (μM conc.)
Experimental: as §1, §2, §3

MDA-MB-435 = experiment: NCI 60 human tumor cell line screen (SRB): MDA-MB-435; conditions: MDA-MB-435, Melanoma, 48 hours, read-out: GI50 values (μM conc.)
Experimental: as §1, §2, §3

NCI-H226 = experiment: NCI 60 human tumor cell line screen (SRB): NCI-H226; conditions: NCI-H226, Non-small cell lung, 48 hours, read-out: GI50 values (μM conc.)
Experimental: as §1, §2, §3

HOP-92 = experiment: NCI 60 human tumor cell line screen (SRB): HOP-92; conditions: HOP-92, Non-small cell lung, 48 hours, read-out: GI50 values (μM conc.)
Experimental: as §1, §2, §3

HCC-2998 = experiment: NCI 60 human tumor cell line screen (SRB): HCC-2998; conditions: HCC-2998, Colon, 48 hours, read-out: GI50 values (μM conc.)
Experimental: as §1, §2, §3

COc1cc(/C=C/C(=O)c2cccnc2Nc2ccc(F)cc2)cc(OC)c1OC [7f, (E)-1-(2-(4-Fluorophenylamino)pyridin-3-yl)-3-(3,4,5-trimethoxyphenyl)prop-2-en-1-one]
GI50 (TK-10): 3.52 µM
GI50 (LOX IMVI): 1.69 µM
GI50 (OVCAR-5): 4.1 µM
GI50 (SK-MEL-5): 2.51 µM
GI50 (HCT-15): 2.27 µM
GI50 (HS 578T): 3.68 µM
GI50 (DU-145): 3.32 µM
GI50 (SNB-75): 1.93 µM
GI50 (U251): 2.78 µM
GI50 (BT-549): 2.7 µM
GI50 (UO-31): 5.62 µM
GI50 (EKVX): 3.94 µM
GI50 (OVCAR-8): 2.69 µM
GI50 (NCI/ADR-RES): 2.37 µM
GI50 (M14): 3.19 µM
GI50 (SF-539): 2.85 µM
GI50 (HOP-62): 2.9 µM
GI50 (SN12C): 3.23 µM
GI50 (A498): 2.18 µM
GI50 (COLO-205): 2.64 µM
GI50 (SK-MEL-2): 2.52 µM
GI50 (A549/ATCC): 2.66 µM
GI50 (CAKI-1): 3.68 µM
GI50 (786-0): 3.9 µM
GI50 (SK-MEL-28): 3.22 µM
GI50 (MDA-MB-435): 3.05 µM
GI50 (NCI-H226): 1.79 µM
GI50 (HOP-92): 1.67 µM
GI50 (HCC-2998): 1.78 µM

COc1cc(C(=O)/C=C/c2cccnc2Nc2ccc(Cl)cc2)cc(OC)c1OC [6ax, (E)-3-(2-(4-Chlorophenylamino)pyridin-3-yl)-1-(3,4,5-trimethoxyphenyl)prop-2-en-1-one]
GI50 (TK-10): 1.87 µM
GI50 (LOX IMVI): 1.27 µM
GI50 (OVCAR-5): 1.74 µM
GI50 (SK-MEL-5): 1.5 µM
GI50 (HCT-15): 1.49 µM
GI50 (HS 578T): 3.08 µM
GI50 (DU-145): 1.63 µM
GI50 (SNB-75): 1.63 µM
GI50 (U251): 1.25 µM
GI50 (BT-549): 1.5 µM
GI50 (UO-31): 1.32 µM
GI50 (EKVX): 1.61 µM
GI50 (OVCAR-8): 1.63 µM
GI50 (NCI/ADR-RES): 1.64 µM
GI50 (M14): 1.75 µM
GI50 (SF-539): 1.71 µM
GI50 (HOP-62): 1.65 µM
GI50 (SN12C): 1.46 µM
GI50 (A498): 1.4 µM
GI50 (COLO-205): 1.83 µM
GI50 (SK-MEL-2): 2.01 µM
GI50 (A549/ATCC): 1.63 µM
GI50 (CAKI-1): 1.75 µM
GI50 (786-0): 1.46 µM
GI50 (SK-MEL-28): 1.72 µM
GI50 (MDA-MB-435): 1.49 µM
GI50 (NCI-H226): 1.16 µM
GI50 (HOP-92): 0.51 µM
GI50 (HCC-2998): 1.52 µM

— US9006451B1, “2-anilinonicotinyl based chalcones useful as potential anticancer agents and process for preparation thereof” (Council of Scientific and Industrial Research, priority 2013, dated 2015)
